One test relates to SeAP reporter gene. The experiment in a line: Circulating SeAP after intramuscular injection and electrotransfer of plasmids into tibialis cranialis muscle of SCID mice. Type of test: in vivo. How it is done: The 6-week-old SCID mice were first anesthetized with a Ketamine/Xylazine mixture (250 μl/mouse). The various plasmids in solution in 150 mM NaCl were then injected intramuscularly into the tibialis cranialis muscle of the mice. […] The amount of circulating SeAP was regularly monitored by taking blood samples and assaying the phosphatase activity using the Phospha-Light kit (Tropix).

Test [1] relates to SeAP reporter gene (plasmid pRDA02). Put plainly: SeAP expression in C2C12 cells, hPPARγ2 inducible system. It is filed as cell-based, murine. Particulars: ratios of columns 3 and 4; 5 and 6; 7 and 8, FIG. 24; BRL49653 at 10^-7 M final. How it is done: FIG. 24: Measurement of the expression of SeAP 5 days after transfection in C2C12 cells with the following plasmids, with and without the chemical inducer BRL49653 at 10^-7 M final:
The cells used were NIHT3T3 murine fibroblasts (ATCC: CRL-1658). These cells were seeded 24 h before transfection, in 6- or 24-well plates, at a density of 5×10^4 cells/well in 1 ml of medium, or of 2.5×10^5 cells/well in 2 ml. The culture medium used was DMEM™ medium (Life Technologies Inc.) supplemented with 10% of calf serum. The cell cultures were incubated in an incubator at 37° C. in a humid atmosphere and under a partial CO2 pressure of 5%. The transfections were carried out approximately 24 h after seeding, when 50 to 80% confluence was obtained. C2C12 cells were murine myoblast cells (ATCC: CRL1772) and were cultured on a DMEM™ medium (Life Technologies Inc.) supplemented with 10% of fetal calf serum to which L-glutamine, 2 mM final, and antibiotics, 50 units final of penicillin and 50 μg/ml of streptomycin, were added.

Experimental findings from patent US20020166132A1, “System for regulating in vivo the expression of a transgene by conditional inhibition” (priority 2000, published 2002) are described below.

Turning to `CN1CCN(c2ccc3[nH]c(-c4ccc5[nH]c(-c6ccc(O)cc6)nc5c4)nc3c2)CC1`, the “SeAP activity with aptamer ligand” value in the test with SeAP reporter gene (pXL3010+pSeAPaptazyme, 400 mg/l via the drinking water, Example 14) was “restored to a significant level”.

As for `NC[C@@H]1O[C@H](O[C@H]2[C@@H](O)[C@H](O[C@@H]3[C@@H](O)[C@H](N)C[C@H](N)[C@H]3O[C@H]3O[C@H](CN)[C@@H](O)[C@H](O)[C@H]3N)O[C@@H]2CO)[C@H](N)[C@@H](O)[C@@H]1O` [neomycin B], the “expression of SeAP with aptamer ligand” value in the test on SeAP reporter gene (pXL3010+pSeAPaptamerAS, IP injection approximately 500 μg/mouse, Example 13) was “can be restored”.

On to `CN(CCOc1ccc(CC2SC(=O)NC2=O)cc1)c1ccccn1` (stereo not drawn) [BRL fibrate, rosiglitazone], for which the “inducibility of the expression of SeAP in the presence of the antisense transcript” value in test [1] is recorded as “a certain inducibility”.
